Reference: ChEMBL document CHEMBL4406920, “Tetrazole as a Replacement of the Electrophilic Group in Characteristic Prolyl Oligopeptidase Inhibitors” (ACS Med Chem Lett, 2019)

The molecules below were run against Prolyl endopeptidase (Sus scrofa, UniProt P23687) (assay: Inhibition of recombinant porcine brain PREP expressed in Escherichia coli assessed as formation of 7-amido-4-methylcoumarin using Suc-Gly-Pro-amido-4-methylcoumarin as substrate preincubated for 30 mins followed by substrate addition measured after 60 mins by fluorometric assay).
Prolyl endopeptidase (Sus scrofa, UniProt P23687), sequence (P23687 whole entry): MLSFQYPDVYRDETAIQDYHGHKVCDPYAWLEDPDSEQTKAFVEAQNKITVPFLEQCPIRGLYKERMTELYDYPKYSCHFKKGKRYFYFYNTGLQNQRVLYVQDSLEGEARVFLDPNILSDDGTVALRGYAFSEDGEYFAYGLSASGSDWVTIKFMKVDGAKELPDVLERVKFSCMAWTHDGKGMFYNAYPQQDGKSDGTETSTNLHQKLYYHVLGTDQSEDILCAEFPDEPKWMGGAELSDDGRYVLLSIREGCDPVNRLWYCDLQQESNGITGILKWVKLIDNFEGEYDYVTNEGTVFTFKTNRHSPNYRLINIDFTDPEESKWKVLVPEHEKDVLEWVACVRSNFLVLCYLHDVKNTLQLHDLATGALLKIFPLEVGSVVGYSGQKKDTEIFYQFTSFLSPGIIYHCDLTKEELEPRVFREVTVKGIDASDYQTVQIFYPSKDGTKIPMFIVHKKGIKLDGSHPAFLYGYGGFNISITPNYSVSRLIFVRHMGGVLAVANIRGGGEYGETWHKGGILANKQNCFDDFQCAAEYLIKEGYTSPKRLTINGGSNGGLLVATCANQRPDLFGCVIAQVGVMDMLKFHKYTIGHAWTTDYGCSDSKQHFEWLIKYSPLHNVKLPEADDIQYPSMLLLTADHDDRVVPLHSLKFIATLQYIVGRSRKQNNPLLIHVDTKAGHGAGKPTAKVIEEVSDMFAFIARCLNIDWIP

Row | Structure (SMILES) | IC50 [µM]
1 | O=C(CCCc1ccccc1)N1CCC[C@H]1C(=O)N1CCC[C@H]1c1nnn[nH]1 | 0.012
2 | C[C@@H](C(=O)N1CCC[C@H]1c1nnn[nH]1)N(C)C(=O)CCCc1ccccc1 | 27.2
3 | O=C(CCCc1ccccc1)NCC(=O)N1CCC[C@H]1c1nnn[nH]1 | 205
4 | NC(=O)[C@@H]1CCCN1C(=O)[C@@H]1CCCN1C(=O)CCCc1ccccc1 | 4.37
5 | CN(CC(=O)N1CCC[C@H]1c1nnn[nH]1)C(=O)CCCc1ccccc1 | 10.6
6 | O=C(O)[C@@H]1CCCN1C(=O)[C@@H]1CCCN1C(=O)CCCc1ccccc1 | 3.63

Results, then the molecule that gave them:

Row | IC50 [µM] | Structure (SMILES)
7 | 0.22 | N#C[C@@H]1CCCN1C(=O)CNC(=O)CCCc1ccccc1
8 | 0.0054 | C[C@@H](C(=O)N1CCC[C@H]1C#N)N(C)C(=O)CCCc1ccccc1
9 | 17.5 | C[C@H](NC(=O)CCCc1ccccc1)C(=O)N1CCC[C@H]1C(=O)O
10 | 0.147 | C[C@H](NC(=O)CCCc1ccccc1)C(=O)N1CCCC1
11 | 0.269 | CN(CC(=O)N1CCC[C@H]1C#N)C(=O)CCCc1ccccc1
12 | 0.00406 | C[C@H](NC(=O)CCCc1ccccc1)C(=O)N1CCC[C@H]1C#N

These molecules were tested against Prolyl endopeptidase (Mus musculus, UniProt Q9QUR6) (assay: Inhibition of PREP in C57BL/6 mouse cortex homogenate assessed as formation of 7-amido-4-methylcoumarin using Suc-Gly-Pro-amido-4-methylcoumarin as substrate preincubated for 30 mins followed by substrate addition measured after 60 mins by fluorometric assay).
Prolyl endopeptidase (Mus musculus, UniProt Q9QUR6), sequence (Q9QUR6 whole entry): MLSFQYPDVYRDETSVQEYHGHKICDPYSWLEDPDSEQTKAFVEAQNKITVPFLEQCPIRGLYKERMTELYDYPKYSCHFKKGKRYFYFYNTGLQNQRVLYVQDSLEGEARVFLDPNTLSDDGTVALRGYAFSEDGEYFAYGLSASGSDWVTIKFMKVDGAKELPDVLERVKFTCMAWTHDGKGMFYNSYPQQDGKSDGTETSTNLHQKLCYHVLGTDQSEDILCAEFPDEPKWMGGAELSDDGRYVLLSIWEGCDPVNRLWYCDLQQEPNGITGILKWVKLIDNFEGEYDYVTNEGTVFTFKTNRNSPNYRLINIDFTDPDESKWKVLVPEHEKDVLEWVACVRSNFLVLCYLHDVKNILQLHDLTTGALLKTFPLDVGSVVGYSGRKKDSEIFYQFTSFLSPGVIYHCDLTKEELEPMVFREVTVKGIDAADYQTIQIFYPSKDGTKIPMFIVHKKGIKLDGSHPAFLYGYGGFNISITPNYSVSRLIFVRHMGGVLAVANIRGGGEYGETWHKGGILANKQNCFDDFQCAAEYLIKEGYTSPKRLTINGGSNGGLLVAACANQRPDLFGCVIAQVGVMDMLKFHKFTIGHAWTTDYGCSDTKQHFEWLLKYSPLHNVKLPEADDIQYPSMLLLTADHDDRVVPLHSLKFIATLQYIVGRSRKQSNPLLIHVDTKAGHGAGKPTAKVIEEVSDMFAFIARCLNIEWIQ

Row | Structure (SMILES) | IC50 [µM]
13 | CN(CC(=O)N1CCC[C@H]1C(N)=O)C(=O)CCCc1ccccc1 | 457
14 | CC(C)(NC(=O)CCCc1ccccc1)C(=O)N1CCCC1 | 13.5
15 | CN(CC(=O)N1CCCC1)C(=O)CCCc1ccccc1 | 5.14
16 | C[C@@H](C(=O)N1CCCC1)N(C)C(=O)CCCc1ccccc1 | 0.298
17 | O=C(CCCc1ccccc1)NCCC(=O)N1CCCC1 | 12.1

The next lines start with the values.

Row | IC50 [µM] | Structure (SMILES)
18 | 154 | NC(=O)[C@@H]1CCCN1C(=O)CNC(=O)CCCc1ccccc1
19 | 0.264 | N#C[C@@H]1CCCN1C(=O)CNC(=O)CCCc1ccccc1
20 | 28.8 | C[C@@H](C(=O)N1CCC[C@H]1C(N)=O)N(C)C(=O)CCCc1ccccc1
21 | 0.091 | C[C@H](NC(=O)CCCc1ccccc1)C(=O)N1CCC[C@H]1c1nnn[nH]1
22 | 0.00328 | C[C@H](NC(=O)CCCc1ccccc1)C(=O)N1CCC[C@H]1C#N
23 | 35.2 | C[C@@H](NC(=O)CCCc1ccccc1)C(=O)N1CCCC1
24 | 6.21 | C[C@H](NC(=O)CCCc1ccccc1)C(=O)N1CCC[C@H]1C(N)=O
